Patent publication US8871208B2, “11-β-hydroxysteroid dehydrogenase type 1 (11β-HSD1) inhibitors and uses thereof” (AbbVie Inc., priority 2009, dated 2014)

Test system: plasma osteocalcin
Test: Study B: prednisone-induced osteocalcin reduction in rats
Assay type: in vivo
Details: vehicle pre-treatment, prednisone 10 mg/kg po, 4 hours later
Text: Prednisolone (active GC) administration to rats induces a variety of acute physiological effects including an increase in liver tyrosine amino transferase, increase in serum free fatty acids, increase in liver glycogen levels, hyperglycemia, decrease in osteocalcin, among others. Osteocalcin is of particular interest since a decrease in this hormone leads to decreased bone formation, increasing the potential for osteoporosis. Administration of an 11β-HSD-1 inhibitor would be expected to reduce local reactivation of prednisolone from prednisone in the bone or relevant tissue, and thereby reduce loss of osteocalin levels. […] Prednisone is reactivated, however, to prednisolone in the liver, bone and other tissues where 11β-HSD-1 is expressed. By blocking this reactivation through the use of an 11β-HSD-1 inhibitor, the exposure of active glucocorticoid in bone would be minimized. This example would pertain to normal older individuals as well where cortisol levels increase with age, and likely contribute to age-dependent osteoporosis. This would be an acute study design. To validate this hypothesis, effects of the 11β-HSD-1 inhibitor (compound A) on prednisolone-induced osteocalcin reduction was evaluated in rats using two separate protocols as indicated in the Table 8 below.

C[C@]12C=CC(=O)C=C1CC[C@@H]1[C@@H]2C(=O)C[C@@]2(C)[C@H]1CC[C@]2(O)C(=O)CO [prednisone]
plasma osteocalcin after prednisone challenge: significant reduction in plasma osteocalcin
